{"source": "patent US20250082624A1", "about": "“METHODS OF TREATING COGNITIVE IMPAIRMENT” (NeuroTherapia, Inc., priority 2023, published 2025)", "experiment": "Phase 1b MAD plasma pharmacokinetics, non-compartmental analysis", "type": "in vivo, human", "description": "Methods: All study procedures were approved by the IRB, and informed consent was obtained. Three cohorts of volunteers 45-80 years of age with well-controlled comorbidities (NOAD) and one cohort of AD patients diagnosed with cognitive impairment consistent with prodromal AD per International Working Group criteria or mild AD per National Institute on Aging—Alzheimer's Association criteria (n=6 active, 2 placebo per cohort) were enrolled. Participants were admitted to the study site for the duration of the dosing and returned 7-12 days after the last dose for a safety visit. Participants received NTRX-07 (10, 30, or 90 mg) or a placebo in a double-blinded randomization orally once daily for seven days. Subjects were assessed for changes in vital signs, including maneuvers to induce lightheadedness, electrocardiograms, 24-hour electroencephalograms (EEG), and safety laboratory studies. The second cohort returned and received a single repeat dose after a standard high-fat meal. The AD cohort also underwent cognitive testing and had blood samples for biomarkers drawn. Subjects had PK sampling done after the first and final dose of the study drug. An independent safety review committee conducted a blinded safety review of adverse events and plasma levels between each cohort.\nAll subjects had PK sampling done after the first and final dose of the study drug.\n(§1) Raw bioanalytical data were received from Nuvisan following analysis of plasma samples from each of four cohorts. PK parameters were calculated by noncompartmental analysis using standard equations. Specifically, area under the plasma concentration versus time curve (AUC) was calculated using the trapezoid rule. Maximal plasma concentration (Cmax) and time of maximal plasma concentration (Tmax) were taken directly from the data. Clearance divided by bioavailability (Cl/F) was calculated as the dose divided by the AUC. Apparent volume of distribution over bioavailability (Vd/F) was calculated as dose divided by Cmax.\nWith oral administration of the dose every 24 hours for 7 days, blood samples were taken over a 24-hour interval on Days 1 and 7 and before and after dosing on Day 3.\nas §1, with “on Oct. 27, 2022. […]” for “following analysis of plasma samples from each of four cohorts. PK parameters were calculated by noncompartmental analysis using standard equations.”\nas §1, with “on Nov. 24, 2022. […]” for “following analysis of plasma samples from each of four cohorts. PK parameters were calculated by noncompartmental analysis using standard equations.”\nas §1, with “on Dec. 19, 2022. […]” for “following analysis of plasma samples from each of four cohorts. PK parameters were calculated by noncompartmental analysis using standard equations.”\nRaw bioanalytical data were received from Nuvisan on Jun. 30, 2023. […] Specifically, area under the plasma concentration versus time curve (AUC) was calculated using the trapezoid rule. Maximal plasma concentration (Cmax) and time of maximal plasma concentration (Tmax) were taken directly from the data. […]", "key": {"[1]": {"details": "Table 17: Cohort D (AD), 90 mg QD oral, Day 7, individual subjects"}, "[2]": {"details": "Table 19 (interim): Cohort A, 40 mg SDD (10 mg NTRX-07) QD oral, Day 1, individual subjects"}, "[3]": {"details": "Table 20 (interim): Cohort A, 40 mg SDD (10 mg NTRX-07) QD oral, Day 7, individual subjects"}, "[4]": {"details": "Table 24 (interim): Cohort B, 120 mg SDD (30 mg NTRX-07) QD oral, Day 1, individual subjects"}, "[5]": {"details": "Table 25 (interim): Cohort B, 120 mg SDD (30 mg NTRX-07) QD oral, Day 7, individual subjects"}, "[6]": {"details": "Table 29 (interim): Cohort C, 360 mg SDD (90 mg NTRX-07) QD oral, Day 1, individual subjects"}, "[7]": {"details": "Table 30 (interim): Cohort C, 360 mg SDD (90 mg NTRX-07) QD oral, Day 7, individual subjects"}, "[8]": {"details": "Table 34 (interim): Cohort D (AD), 360 mg SDD (90 mg NTRX-07) QD oral, Day 1, individual subjects"}, "[9]": {"details": "Table 35 (interim): Cohort D (AD), 360 mg SDD (90 mg NTRX-07) QD oral, Day 7, individual subjects"}}, "note": "Where “and” joins values, the source holds several entries; their conditions need not be identical. Identical values can stand only once. Entries after “also recorded” stand apart in the source; their conditions may differ. Like-named read-outs stand apart in the source and are kept apart here."}
{"smiles": "CC1(Cc2ccccc2)COc2cc(C(=O)N3CCCCC3)ccc21", "note": "(centres unmarked) [NTRX-07, 3-benzyl-3-methyl-2,3-dihydrobenzofuran-6-carboxylic acid-piperidine amide]", "values": [{"measurement": "Cmax", "setting": "[1]", "value": "250 ng/mL and 262 ng/mL and 246 ng/mL and 176 ng/mL and 221 ng/mL"}, {"measurement": "Tmax", "setting": "[1]", "value": "1.5 h (3×) and 1 h"}, {"measurement": "Cl/F", "setting": "Table 17: Cohort D (AD), 90 mg QD oral, Day 7, mean ± S.D.", "value": "117 ± 28", "unit": "L/h"}, {"measurement": "AUC24 h", "setting": "[2]", "value": "35.7 ng·h/mL and 73.8 ng·h/mL and 151.0 ng·h/mL and 46.3 ng·h/mL and 154.2 ng·h/mL and 96.8 ng·h/mL"}, {"measurement": "Cl/F", "setting": "[2]", "value": "1120 L/h and 542 L/h and 265 L/h and 864 L/h and 259 L/h and 413 L/h"}, {"measurement": "Cmax", "setting": "[2]", "value": "24.2 ng/mL and 45.0 ng/mL and 36.7 ng/mL and 18.2 ng/mL and 52.6 ng/mL and 37.0 ng/mL"}, {"measurement": "Tmax", "setting": "[2]", "value": 1.0, "unit": "h"}, {"measurement": "Cl/F", "setting": "Table 19 (interim): Cohort A, 40 mg SDD (10 mg NTRX-07) QD oral, Day 1, mean ± S.D.", "value": "577 ± 347", "unit": "L/h"}, {"measurement": "AUC24 h", "setting": "[3]", "value": "49.5 ng·h/mL and 92.8 ng·h/mL and 223.8 ng·h/mL and 41.5 ng·h/mL and 91.9 ng·h/mL and 67.0 ng·h/mL"}, {"measurement": "Cl/F", "setting": "[3]", "value": "808 L/h and 431 L/h and 179 L/h and 963 L/h and 435 L/h and 597 L/h"}, {"measurement": "Cmax", "setting": "[3]", "value": "29.6 ng/mL and 39.4 ng/mL and 63.6 ng/mL and 19.6 ng/mL and 46.7 ng/mL and 27.1 ng/mL"}, {"measurement": "Tmax", "setting": "[3]", "value": 1.0, "unit": "h"}, {"measurement": "Cl/F", "setting": "Table 20 (interim): Cohort A, 40 mg SDD (10 mg NTRX-07) QD oral, Day 7, mean ± S.D.", "value": "569 ± 284", "unit": "L/h"}, {"measurement": "AUC24 h", "setting": "[4]", "value": "152.3 ng·h/mL and 462.4 ng·h/mL and 716.3 ng·h/mL and 369.3 ng·h/mL and 229.9 ng·h/mL and 97.4 ng·h/mL and 236.4 ng·h/mL"}, {"measurement": "Cl/F", "setting": "[4]", "value": "788 L/h and 260 L/h and 168 L/h and 325 L/h and 522 L/h and 1231 L/h and 508 L/h"}, {"measurement": "Cmax", "setting": "[4]", "value": "60.8 ng/mL and 93.9 ng/mL and 209 ng/mL and 127 ng/mL and 153 ng/mL and 47.9 ng/mL and 70.6 ng/mL"}, {"measurement": "Tmax", "setting": "[4]", "value": "1 h (3×) and 2 h"}, {"measurement": "Cl/F", "setting": "Table 24 (interim): Cohort B, 120 mg SDD (30 mg NTRX-07) QD oral, Day 1, mean ± S.D.", "value": "549 ± 401", "unit": "L/h"}, {"measurement": "AUC24 h", "setting": "[5]", "value": "118.0 ng·h/mL and 582.3 ng·h/mL and 286.5 ng·h/mL and 241.7 ng·h/mL and 67.1 ng·h/mL and 200.4 ng·h/mL"}, {"measurement": "Cl/F", "setting": "[5]", "value": "1017 L/h and 206 L/h and 419 L/h"}, {"measurement": "Cmax", "setting": "[5]", "value": "92.9 ng/mL and 236 ng/mL and 127 ng/mL"}, {"measurement": "Tmax", "setting": "[5]", "value": 1, "unit": "h"}, {"measurement": "AUC24 h", "setting": "[6]", "value": "1629 ng·h/mL and 857 ng·h/mL and 925 ng·h/mL and 657 ng·h/mL and 1730 ng·h/mL and 1949 ng·h/mL"}, {"measurement": "Tmax", "setting": "[6]", "value": "1.5 h (2×) and 8 h and 1 h and 3 h"}, {"measurement": "AUC24 h", "setting": "[7]", "value": "783 ng·h/mL and 604 ng·h/mL and 354 ng·h/mL and 516 ng·h/mL and 876 ng·h/mL and 1349 ng·h/mL"}, {"measurement": "Tmax", "setting": "[7]", "value": "2 h and 1.5 h and 3 h"}, {"measurement": "AUC24 h", "setting": "[8]", "value": "1004 ng·h/mL and 1255 ng·h/mL and 2727 ng·h/mL and 1349 ng·h/mL and 1580 ng·h/mL and 1422 ng·h/mL"}, {"measurement": "Tmax", "setting": "[8]", "value": "2 h and 1 h (2×) and 1.5 h"}, {"measurement": "AUC24 h", "setting": "[9]", "value": "1854 ng·h/mL and 1659 ng·h/mL and 1603 ng·h/mL and 1328 ng·h/mL and 1130 ng·h/mL"}, {"measurement": "Tmax", "setting": "[9]", "value": "1.5 h (3×) and 1 h"}, {"measurement": "PK / plasma levels AD vs Non-AD participants", "setting": "high dose (90 mg)", "value": "similar; also recorded: comparable"}, {"measurement": "Cmax", "setting": "human, plasma, oral, 90 mg, high dose (90 mg), AD participants, read-out: Cmax", "value": 477, "unit": "ng/mL"}, {"measurement": "AUC(0-t)", "setting": "human, plasma, oral, 90 mg, high dose (90 mg), AD participants, read-out: average of AUC0-24 h", "value": 1560, "unit": "ng·h/mL"}, {"measurement": "Cmax", "setting": "human, plasma, oral, 90 mg, high dose (90 mg), Non-AD participants, read-out: Cmax", "value": 439, "unit": "ng/mL"}, {"measurement": "AUC(0-t)", "setting": "human, plasma, oral, 90 mg, high dose (90 mg), Non-AD participants, read-out: average of AUC0-24 h", "value": 1290, "unit": "ng·h/mL"}, {"measurement": "AUC(0-t)", "setting": "human, plasma, po, 10 mg, Cohort A healthy, 10 mg QD oral, Day 1, mean ± SD, read-out: Average of AUC24 h", "value": "78.8 ± 43.7", "unit": "ng·h/mL"}, {"measurement": "Cmax", "setting": "human, plasma, po, 10 mg, Cohort A healthy, 10 mg QD oral, Day 1, mean ± SD, read-out: Average of Cmax", "value": "35.6 ± 12.8", "unit": "ng/mL"}, {"measurement": "Tmax", "setting": "human, plasma, po, 10 mg, Cohort A healthy, 10 mg QD oral, Day 1, mean ± SD, read-out: Average of Tmax", "value": "0.7 ± 0.3", "unit": "h"}, {"measurement": "Vd/F", "setting": "human, plasma, po, 10 mg, Cohort A healthy, 10 mg QD oral, Day 1, mean ± SD, read-out: Average of Vd/F", "value": "1280 ± 544", "unit": "L"}, {"measurement": "AUC(0-t)", "setting": "human, plasma, po, 10 mg, Cohort A healthy, 10 mg QD oral, Day 7, mean ± SD, read-out: Average of AUC24 h", "value": "90.4 ± 67.9", "unit": "ng·h/mL"}, {"measurement": "Cmax", "setting": "human, plasma, po, 10 mg, Cohort A healthy, 10 mg QD oral, Day 7, mean ± SD, read-out: Average of Cmax", "value": "37.7 ± 15.9", "unit": "ng/mL"}, {"measurement": "Tmax", "setting": "human, plasma, po, 10 mg, Cohort A healthy, 10 mg QD oral, Day 7, mean ± SD, read-out: Average of Tmax", "value": "0.8 ± 0.3", "unit": "h"}, {"measurement": "Vd/F", "setting": "human, plasma, po, 10 mg, Cohort A healthy, 10 mg QD oral, Day 7, mean ± SD, read-out: Average of Vd/F", "value": "307 ± 126", "unit": "L"}, {"measurement": "Tmax", "setting": "human, plasma, po, 10 mg, Table 9: Cohort A, 10 mg QD oral, Day 1, individual subjects, read-out: Tmax", "value": 0.5, "unit": "h"}, {"measurement": "AUC(0-t)", "setting": "human, plasma, po, 10 mg, Table 9: Cohort A, 10 mg QD oral, Day 1, mean ± S.D., read-out: AUClast", "value": "78.8 ± 43.7", "unit": "ng·h/mL"}, {"measurement": "Cmax", "setting": "human, plasma, po, 10 mg, Table 9: Cohort A, 10 mg QD oral, Day 1, mean ± S.D., read-out: Cmax", "value": "35.6 ± 12.8", "unit": "ng/mL"}, {"measurement": "Tmax", "setting": "human, plasma, po, 10 mg, Table 9: Cohort A, 10 mg QD oral, Day 1, mean ± S.D., read-out: Tmax", "value": "0.7 ± 0.3", "unit": "h"}, {"measurement": "Vd/F", "setting": "human, plasma, po, 10 mg, Table 9: Cohort A, 10 mg QD oral, Day 1, mean ± S.D., read-out: Vd/F", "value": "1280 ± 544", "unit": "L"}, {"measurement": "Tmax", "setting": "human, plasma, po, 10 mg, Table 10: Cohort A, 10 mg QD oral, Day 7, individual subjects, read-out: Tmax", "value": 0.5, "unit": "h"}, {"measurement": "AUC over 24 h (AUC0-24)", "setting": "human, plasma, po, 10 mg, Table 10: Cohort A, 10 mg QD oral, Day 7, mean ± S.D.", "value": "90.4 ± 67.9", "unit": "ng·h/mL"}]}
